Measurements published in the Kinase Knowledgebase extract (Sharma et al. 2016).

Each compound was assayed against EGFR (UniProt P00533) (assay: not given).
EGFR, sequence (P00533 whole entry, looked up): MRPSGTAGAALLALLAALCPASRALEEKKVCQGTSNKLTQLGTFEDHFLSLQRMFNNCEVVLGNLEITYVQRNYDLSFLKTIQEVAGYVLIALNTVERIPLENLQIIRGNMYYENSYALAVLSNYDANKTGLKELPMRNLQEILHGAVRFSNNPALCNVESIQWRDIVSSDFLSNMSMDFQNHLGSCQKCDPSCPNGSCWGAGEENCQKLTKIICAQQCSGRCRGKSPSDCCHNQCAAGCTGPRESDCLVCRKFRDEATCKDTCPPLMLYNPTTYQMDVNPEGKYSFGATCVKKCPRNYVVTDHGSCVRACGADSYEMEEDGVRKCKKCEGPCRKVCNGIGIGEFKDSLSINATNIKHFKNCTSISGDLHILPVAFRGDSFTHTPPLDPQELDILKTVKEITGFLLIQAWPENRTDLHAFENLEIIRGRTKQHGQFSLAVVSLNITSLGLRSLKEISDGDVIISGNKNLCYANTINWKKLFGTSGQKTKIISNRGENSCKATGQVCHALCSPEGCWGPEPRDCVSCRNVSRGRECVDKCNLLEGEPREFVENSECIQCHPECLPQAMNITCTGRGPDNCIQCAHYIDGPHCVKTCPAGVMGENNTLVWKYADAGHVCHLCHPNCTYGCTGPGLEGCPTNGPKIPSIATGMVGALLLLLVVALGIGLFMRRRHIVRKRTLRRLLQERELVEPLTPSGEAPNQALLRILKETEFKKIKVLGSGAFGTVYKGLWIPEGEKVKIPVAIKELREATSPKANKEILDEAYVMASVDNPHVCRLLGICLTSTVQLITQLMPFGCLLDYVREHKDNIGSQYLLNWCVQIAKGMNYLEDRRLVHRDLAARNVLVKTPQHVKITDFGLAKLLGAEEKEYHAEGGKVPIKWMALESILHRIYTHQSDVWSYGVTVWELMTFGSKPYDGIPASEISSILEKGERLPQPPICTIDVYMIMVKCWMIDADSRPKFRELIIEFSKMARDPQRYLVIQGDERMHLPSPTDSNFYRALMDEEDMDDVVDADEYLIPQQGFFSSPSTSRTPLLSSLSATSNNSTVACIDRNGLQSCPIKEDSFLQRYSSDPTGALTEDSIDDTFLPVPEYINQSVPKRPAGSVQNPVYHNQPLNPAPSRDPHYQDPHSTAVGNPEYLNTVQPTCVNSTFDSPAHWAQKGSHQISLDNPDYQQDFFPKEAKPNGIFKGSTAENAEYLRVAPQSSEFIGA

With Cc1[nH]c(/C=C2\C(=O)Nc3cccc(-c4nccs4)c32)c(C)c1C(=O)N1CCN(C)CC1 as the compound, how does the IC50 read?
Its IC50 is over 20 µM.

For Cc1[nH]c(/C=C2\C(=O)Nc3cccc(-c4cncc(C(=O)O)c4)c32)c(C)c1C(=O)N1CCN(C)CC1, which IC50 is on record?
The IC50 was over 20 µM.

How did the IC50 turn out when Cc1cc(C(=O)O)[nH]c1/C=C1\C(=O)Nc2cccc(C3CCNCC3)c21 was run?
The IC50 was over 20 µM.

For CCOC(=O)c1c(C)[nH]c(/C=C2\C(=O)Nc3cccc(-c4nccs4)c32)c1CCCN1CCN(C)CC1, which IC50 is on record?
Its IC50 is over 20 µM.

O=C1Nc2cccc(C3CCNCC3)c2/C1=C/c1cc2c([nH]1)CCCC2 was tested. Which IC50 did it give?
Its IC50 is over 20 µM.

How did the IC50 turn out when Cc1c(C(=O)N2CCCCC2)c[nH]c1/C=C1\C(=O)Nc2cccc(C3CCNCC3)c21 was run?
Its IC50 is over 20 µM.

Cc1[nH]c(/C=C2\C(=O)Nc3cccc(-c4cncnc4)c32)c(C)c1C(=O)N1CCN(C)CC1 was tested. Which IC50 did it give?
The IC50 was over 20 µM.

For Cc1[nH]c(/C=C2\C(=O)Nc3cccc(-c4cccnc4)c32)c(C)c1C(=O)N1CCN(C)CC1, which IC50 is on record?
The IC50 was over 20 µM.

For O=C1Nc2cccc(C3CCNCC3)c2/C1=C/c1cc2ccccc2[nH]1, which IC50 is on record?
Its IC50 is over 20 µM.

How did the IC50 turn out when CCN(CC)CCNC(=O)c1c(C)[nH]c(/C=C2\C(=O)Nc3cccc(C4CCNCC4)c32)c1C was run?
Its IC50 is over 20 µM.

How did the IC50 turn out when CCOC(=O)c1[nH]c(/C=C2\C(=O)Nc3cccc(C4CCNCC4)c32)c(CCC(=O)O)c1C was run?
The IC50 was over 20 µM.

How did the IC50 turn out when O=C1Nc2cccc(C3CCNCC3)c2/C1=C/c1[nH]cc2c1CCOC2=O was run?
The IC50 was over 20 µM.

Which IC50 does the source give for Cc1[nH]c(/C=C2\C(=O)Nc3cccc(C4CCNCC4)c32)c(-c2ccccc2)c1C(=O)Nc1ccncc1 here?
The IC50 was over 20 µM.

Which IC50 does the source give for Cc1cc(C(=O)O)c(/C=C2\C(=O)Nc3cccc(C4CCNCC4)c32)[nH]1 here?
The IC50 was over 20 µM.

For Cc1[nH]c(/C=C2\C(=O)Nc3cccc(-c4ccccn4)c32)c(C)c1C(=O)N1CCN(C)CC1, which IC50 is on record?
The IC50 was over 20 µM.

With Cc1[nH]c(/C=C2\C(=O)Nc3cccc(-c4ccncc4)c32)c(C)c1CCC(=O)O as the compound, how does the IC50 read?
The IC50 was over 20 µM.

Cc1nc[nH]c1/C=C1\C(=O)Nc2cccc(-c3ccncc3)c21 was tested. Which IC50 did it give?
The IC50 was over 20 µM.

With CCOC(=O)c1c(C)[nH]c(/C=C2\C(=O)Nc3cccc(-c4ccncc4)c32)c1CCC(=O)O as the compound, how does the IC50 read?
The IC50 was over 20 µM.

How did the IC50 turn out when O=C1Nc2cccc(-c3ccncc3)c2/C1=C/c1cc2cc(OCCN3CCOCC3)ccc2[nH]1 was run?
The IC50 was 17.9 µM.

Which IC50 does the source give for CCc1cc(CCC(=O)O)c(/C=C2\C(=O)Nc3cccc(C4CCNCC4)c32)[nH]1 here?
Its IC50 is over 20 µM.

For CCOC(=O)c1c(C)[nH]c(/C=C2\C(=O)Nc3cccc(-c4cncc(C(=O)O)c4)c32)c1CCCN1CCN(C)CC1, which IC50 is on record?
The IC50 was over 20 µM.

How did the IC50 turn out when CCOC(=O)c1c(C)[nH]c(/C=C2\C(=O)Nc3cccc(-c4cncnc4)c32)c1CCCN1CCN(C)CC1 was run?
The IC50 was over 20 µM.

CCN(CC)CCNC(=O)c1c(C)[nH]c(/C=C2\C(=O)Nc3cccc(-c4ccncc4)c32)c1C was tested. Which IC50 did it give?
Its IC50 is over 20 µM.

How did the IC50 turn out when CCc1cc(CCC(=O)O)c(/C=C2\C(=O)Nc3cccc(-c4ccncc4)c32)[nH]1 was run?
Its IC50 is over 20 µM.

For Cc1nc[nH]c1/C=C1\C(=O)Nc2cccc(C3CCNCC3)c21, which IC50 is on record?
Its IC50 is over 20 µM.

Which IC50 does the source give for O=C1Nc2cccc(C3CCNCC3)c2/C1=C/c1cc2cc(OCCN3CCOCC3)ccc2[nH]1 here?
The IC50 was 19.1 µM.

Which IC50 does the source give for O=C1Nc2cccc(C3CCNCC3)c2/C1=C/c1[nH]c2c(c1CCCN1CCOCC1)CCCC2 here?
Its IC50 is over 20 µM.

CCOC(=O)c1c(C)[nH]c(/C=C2\C(=O)Nc3cccc(-c4cccnc4)c32)c1CCCN1CCN(C)CC1 was tested. Which IC50 did it give?
Its IC50 is over 20 µM.

Cc1[nH]c(/C=C2\C(=O)Nc3cccc(C4CCNCC4)c32)c(C)c1CCC(=O)O was tested. Which IC50 did it give?
The IC50 was over 20 µM.

Which IC50 does the source give for O=C1Nc2cccc(-c3ccncc3)c2/C1=C/c1[nH]c2c(c1CCCN1CCOCC1)CCCC2 here?
Its IC50 is over 20 µM.

How did the IC50 turn out when CCOC(=O)c1c(C)[nH]c(/C=C2\C(=O)Nc3cccc(-c4ccc(N)nc4)c32)c1CCCN1CCN(C)CC1 was run?
Its IC50 is over 20 µM.

For O=C1Nc2cccc(C3CCNCC3)c2/C1=C/c1[nH]cc(C(=O)O)c1CCO, which IC50 is on record?
The IC50 was over 20 µM.

With Cc1[nH]c(/C=C2\C(=O)Nc3cccc(C4CCNCC4)c32)c(C)c1CC(=O)O as the compound, how does the IC50 read?
Its IC50 is over 20 µM.

Cc1c(C(=O)N2CCCCC2)c[nH]c1/C=C1\C(=O)Nc2cccc(-c3ccncc3)c21 was tested. Which IC50 did it give?
The IC50 was over 20 µM.

How did the IC50 turn out when Cc1ccc(/C=C2\C(=O)Nc3cccc(C4CCNCC4)c32)s1 was run?
The IC50 was over 20 µM.

Which IC50 does the source give for Cc1[nH]c(/C=C2\C(=O)Nc3cccc(-c4ccc(N)nc4)c32)c(C)c1C(=O)N1CCN(C)CC1 here?
The IC50 was over 20 µM.

For CCOC(=O)c1c(C)[nH]c(/C=C2\C(=O)Nc3cccc(-c4ccccn4)c32)c1CCCN1CCN(C)CC1, which IC50 is on record?
Its IC50 is over 20 µM.

Cc1cc(C(=O)O)c(/C=C2\C(=O)Nc3cccc(-c4ccncc4)c32)[nH]1 was tested. Which IC50 did it give?
The IC50 was over 20 µM.

Cc1cc(C)c(/C=C2\C(=O)Nc3cccc(-c4ccncc4)c32)[nH]1 was tested. Which IC50 did it give?
The IC50 was over 20 µM.

Which IC50 does the source give for O=C1Nc2cccc(C3CCNCC3)c2/C1=C/c1ccc(N2CCOCC2)cc1 here?
The IC50 was over 20 µM.

For Cc1cc(C(=O)N2CCN(C)CC2)[nH]c1/C=C1\C(=O)Nc2cccc(C3CCNCC3)c21, which IC50 is on record?
Its IC50 is over 20 µM.

How did the IC50 turn out when CCN(CC)CCNC(=O)c1c(C)[nH]c(/C=C2\C(=O)Nc3cccc(-c4cncc(C(=O)O)c4)c32)c1C was run?
Its IC50 is over 20 µM.

With Cc1[nH]c(/C=C2\C(=O)Nc3cccc(-c4ccncc4)c32)c(C)c1C(=O)N1CCN(C)CC1 as the compound, how does the IC50 read?
The IC50 was over 20 µM.

With O=C(O)CCc1c(/C=C2\C(=O)Nc3cccc(-c4ccncc4)c32)[nH]c2c1CCCC2 as the compound, how does the IC50 read?
The IC50 was over 20 µM.

How did the IC50 turn out when CCOC(=O)c1[nH]c(/C=C2\C(=O)Nc3cccc(C4CCNCC4)c32)c2c1CCCC2 was run?
The IC50 was 14.7 µM.

How did the IC50 turn out when Cc1c(C(=O)N2CCOCC2)c[nH]c1/C=C1\C(=O)Nc2cccc(C3CCNCC3)c21 was run?
Its IC50 is over 20 µM.

Which IC50 does the source give for Cc1cc(C(=O)O)[nH]c1/C=C1\C(=O)Nc2cccc(-c3ccncc3)c21 here?
The IC50 was over 20 µM.

How did the IC50 turn out when Cc1[nH]c(/C=C2\C(=O)Nc3cccc(-c4ccncc4)c32)c(C)c1CC(=O)O was run?
The IC50 was over 20 µM.

Cc1cc(CCC(=O)O)c(/C=C2\C(=O)Nc3cccc(-c4ccncc4)c32)[nH]1 was tested. Which IC50 did it give?
The IC50 was over 20 µM.

For O=C1Nc2cccc(-c3ccncc3)c2/C1=C/c1[nH]cc2c1CCOC2=O, which IC50 is on record?
The IC50 was over 20 µM.

For O=C1Nc2cccc(-c3ccncc3)c2/C1=C/c1cc2ccccc2[nH]1, which IC50 is on record?
Its IC50 is 16.3 µM.

Each compound was assayed against CDK2 (UniProt P24941) (assay: Enzyme Assay).

Cc1c(C(=O)N2CCCCC2)c[nH]c1/C=C1\C(=O)Nc2cccc(C3CCNCC3)c21 was tested. Which IC50 did it give?
The IC50 was 0.02 µM.

How did the IC50 turn out when O=C1Nc2cccc(C3CCNCC3)c2/C1=C/c1[nH]cc2c1CCOC2=O was run?
The IC50 was 0.009 µM.

Cc1nc[nH]c1/C=C1\C(=O)Nc2cccc(-c3ccncc3)c21 was tested. Which IC50 did it give?
The IC50 was 0.03 µM.

For CN1CCc2c(c[nH]c2/C=C2\C(=O)Nc3cccc(C4CCNCC4)c32)C1=O, which IC50 is on record?
Its IC50 is 0.26 µM.

How did the IC50 turn out when Cc1nc[nH]c1/C=C1\C(=O)Nc2cccc(C3CCNCC3)c21 was run?
The IC50 was 0.01 µM.

O=C1Nc2cccc(C3CCNCC3)c2/C1=C/c1cc2cc(OCCN3CCOCC3)ccc2[nH]1 was tested. Which IC50 did it give?
Its IC50 is 1.96 µM.

With Cc1c(C(=O)N2CCCCC2)c[nH]c1/C=C1\C(=O)Nc2cccc(-c3ccncc3)c21 as the compound, how does the IC50 read?
The IC50 was 0.75 µM.

How did the IC50 turn out when O=C1Nc2cccc(C3CCNCC3)c2/C1=C/c1[nH]cc2c1CCNC2=O was run?
The IC50 was 0.06 µM.

How did the IC50 turn out when Cc1c(C(=O)N2CCOCC2)c[nH]c1/C=C1\C(=O)Nc2cccc(C3CCNCC3)c21 was run?
Its IC50 is 0.02 µM.

O=C1Nc2cccc(-c3ccncc3)c2/C1=C/c1[nH]cc2c1CCOC2=O was tested. Which IC50 did it give?
The IC50 was 0.08 µM.
